# Experimental data: US11633447B2, “Pharmaceutical composition and functional health food for preventing or treating macular degeneration” (LEMONEX INC., priority 2018, dated 2023)
# Key:
# ARPE-19 cells = test: Retinal pigment epithelial cell protection against blue light-induced photooxidation after A2E accumulation (cell counting kit-8 viability); type: cell-based; settings: 17.04 μg/mL (30 μM) for 24 hours; 20 μM A2E; blue light 4,000 lux 10 minutes; difference control vs blue light group set to 100%
# Description: Since it is already known that photooxidation occurs when retinal pigment epithelial cells accumulated with A2E are irradiated with blue light, it was confirmed whether cytotoxicity derived by irradiation with blue light after 20 μM A2E accumulation in ARPE-19 cells could be suppressed using the banaba leaf extract, guava leaf extract, and the mixture thereof. Specifically, all ARPE-19 cells were treated with A2E at a concentration of 20 μM for 24 hours, and then treated with 100 μg/mL of the banaba leaf extract, the guava leaf extract, and the mixture thereof in Example 1, respectively, or 17.04 μg/mL (30 μM) of lutein for 24 hours. Thereafter, the treated cells were irradiated with blue light (4,000 lux) for 10 minutes. 24 hours after blue light irradiation, cell viability of ARPE-19 cells was measured by a cell counting kit-8 (Dojindo Labs, Japan), and the percentage of cell viability of each treatment group was compared to the control not irradiated with blue light. Lutein was used as a positive control. […] By setting a difference in cell viability between the control not irradiated with blue light and the blue light irradiated group to be 100%, cell protective effects of each extract were estimated by calculating cell protective effects through a difference in cell viability between the blue light irradiated group and the treated group. […]
# Balb-c mice = test: Blue light-induced macular degeneration animal model, thickness of outer nuclear layer (ONL) by H&E staining; type: in vivo; settings: oral, once daily, 50 mg/kg, blue light 10,000 lux 1 hour per day for 14 days
# Description: Balb-c mice (5 weeks old, males) were acclimated and bred for 2 days, and then orally administered with each of the banaba leaf extract, the guava leaf extract, the mixture thereof or lutein (50 mg/kg) once daily for 7 days. Then, after 24 hours of dark acclimatization, each of the extracts and the mixture and lutein was orally administered for 14 days, and 30 minutes later, followed by blue light irradiation at 10,000 lux for 1 hour per day. 24 hours after the blue light irradiation and the end of administration of the extract, the mice were sacrificed to an extract eyeball, and then, retinal cell protective effects were determined through tissue staining (FIG. 4).
# The extracted eyeball tissue was fixed with a neutral buffered formalin solution. The fixed eyeball was washed with running water and was subjected to a dehydration process using alcohol. Thereafter, a clearing process was performed using Xylene, and proper rigidity was given to the tissue using paraffin. The eyeball was made into a predetermined shape of paraffin block, and then cut to 4 μm thickness. The cut eyeball was subjected to hematoxylin & eosin (H & E) staining. […] Then, a thickness of the outer nuclear layer (ONL) of the visual cell was measured by Image J software (National Institute of Health, […], Md., USA)), followed by counting the number of nuclei. […]
compound,measurement,setting,value
CC1=C[C@H](O)CC(C)(C)[C@H]1/C=C/C(C)=C/C=C/C(C)=C/C=C/C=C(C)/C=C/C=C(C)/C=C/C1=C(C)C[C@@H](O)CC1(C)C [lutein],cell protective effect (cell viability),ARPE-19 cells,48.4%
same,ONL thickness change in administered groups,Balb-c mice,significantly increased ONL thickness
same,ONL protective effect (ONL thickness),Balb-c mice; difference control vs blue light group set to 100%,28.2%
